Molecular target: IP3R1 (HEK-IP3R1 cells) (Rattus norvegicus, UniProt P29994)
Assay: Ca2+ release from stores of permeabilized cells, Mag-fluo […]
Type: cell-based

Chain of IP3R1 (HEK-IP3R1 cells) (P29994 whole entry): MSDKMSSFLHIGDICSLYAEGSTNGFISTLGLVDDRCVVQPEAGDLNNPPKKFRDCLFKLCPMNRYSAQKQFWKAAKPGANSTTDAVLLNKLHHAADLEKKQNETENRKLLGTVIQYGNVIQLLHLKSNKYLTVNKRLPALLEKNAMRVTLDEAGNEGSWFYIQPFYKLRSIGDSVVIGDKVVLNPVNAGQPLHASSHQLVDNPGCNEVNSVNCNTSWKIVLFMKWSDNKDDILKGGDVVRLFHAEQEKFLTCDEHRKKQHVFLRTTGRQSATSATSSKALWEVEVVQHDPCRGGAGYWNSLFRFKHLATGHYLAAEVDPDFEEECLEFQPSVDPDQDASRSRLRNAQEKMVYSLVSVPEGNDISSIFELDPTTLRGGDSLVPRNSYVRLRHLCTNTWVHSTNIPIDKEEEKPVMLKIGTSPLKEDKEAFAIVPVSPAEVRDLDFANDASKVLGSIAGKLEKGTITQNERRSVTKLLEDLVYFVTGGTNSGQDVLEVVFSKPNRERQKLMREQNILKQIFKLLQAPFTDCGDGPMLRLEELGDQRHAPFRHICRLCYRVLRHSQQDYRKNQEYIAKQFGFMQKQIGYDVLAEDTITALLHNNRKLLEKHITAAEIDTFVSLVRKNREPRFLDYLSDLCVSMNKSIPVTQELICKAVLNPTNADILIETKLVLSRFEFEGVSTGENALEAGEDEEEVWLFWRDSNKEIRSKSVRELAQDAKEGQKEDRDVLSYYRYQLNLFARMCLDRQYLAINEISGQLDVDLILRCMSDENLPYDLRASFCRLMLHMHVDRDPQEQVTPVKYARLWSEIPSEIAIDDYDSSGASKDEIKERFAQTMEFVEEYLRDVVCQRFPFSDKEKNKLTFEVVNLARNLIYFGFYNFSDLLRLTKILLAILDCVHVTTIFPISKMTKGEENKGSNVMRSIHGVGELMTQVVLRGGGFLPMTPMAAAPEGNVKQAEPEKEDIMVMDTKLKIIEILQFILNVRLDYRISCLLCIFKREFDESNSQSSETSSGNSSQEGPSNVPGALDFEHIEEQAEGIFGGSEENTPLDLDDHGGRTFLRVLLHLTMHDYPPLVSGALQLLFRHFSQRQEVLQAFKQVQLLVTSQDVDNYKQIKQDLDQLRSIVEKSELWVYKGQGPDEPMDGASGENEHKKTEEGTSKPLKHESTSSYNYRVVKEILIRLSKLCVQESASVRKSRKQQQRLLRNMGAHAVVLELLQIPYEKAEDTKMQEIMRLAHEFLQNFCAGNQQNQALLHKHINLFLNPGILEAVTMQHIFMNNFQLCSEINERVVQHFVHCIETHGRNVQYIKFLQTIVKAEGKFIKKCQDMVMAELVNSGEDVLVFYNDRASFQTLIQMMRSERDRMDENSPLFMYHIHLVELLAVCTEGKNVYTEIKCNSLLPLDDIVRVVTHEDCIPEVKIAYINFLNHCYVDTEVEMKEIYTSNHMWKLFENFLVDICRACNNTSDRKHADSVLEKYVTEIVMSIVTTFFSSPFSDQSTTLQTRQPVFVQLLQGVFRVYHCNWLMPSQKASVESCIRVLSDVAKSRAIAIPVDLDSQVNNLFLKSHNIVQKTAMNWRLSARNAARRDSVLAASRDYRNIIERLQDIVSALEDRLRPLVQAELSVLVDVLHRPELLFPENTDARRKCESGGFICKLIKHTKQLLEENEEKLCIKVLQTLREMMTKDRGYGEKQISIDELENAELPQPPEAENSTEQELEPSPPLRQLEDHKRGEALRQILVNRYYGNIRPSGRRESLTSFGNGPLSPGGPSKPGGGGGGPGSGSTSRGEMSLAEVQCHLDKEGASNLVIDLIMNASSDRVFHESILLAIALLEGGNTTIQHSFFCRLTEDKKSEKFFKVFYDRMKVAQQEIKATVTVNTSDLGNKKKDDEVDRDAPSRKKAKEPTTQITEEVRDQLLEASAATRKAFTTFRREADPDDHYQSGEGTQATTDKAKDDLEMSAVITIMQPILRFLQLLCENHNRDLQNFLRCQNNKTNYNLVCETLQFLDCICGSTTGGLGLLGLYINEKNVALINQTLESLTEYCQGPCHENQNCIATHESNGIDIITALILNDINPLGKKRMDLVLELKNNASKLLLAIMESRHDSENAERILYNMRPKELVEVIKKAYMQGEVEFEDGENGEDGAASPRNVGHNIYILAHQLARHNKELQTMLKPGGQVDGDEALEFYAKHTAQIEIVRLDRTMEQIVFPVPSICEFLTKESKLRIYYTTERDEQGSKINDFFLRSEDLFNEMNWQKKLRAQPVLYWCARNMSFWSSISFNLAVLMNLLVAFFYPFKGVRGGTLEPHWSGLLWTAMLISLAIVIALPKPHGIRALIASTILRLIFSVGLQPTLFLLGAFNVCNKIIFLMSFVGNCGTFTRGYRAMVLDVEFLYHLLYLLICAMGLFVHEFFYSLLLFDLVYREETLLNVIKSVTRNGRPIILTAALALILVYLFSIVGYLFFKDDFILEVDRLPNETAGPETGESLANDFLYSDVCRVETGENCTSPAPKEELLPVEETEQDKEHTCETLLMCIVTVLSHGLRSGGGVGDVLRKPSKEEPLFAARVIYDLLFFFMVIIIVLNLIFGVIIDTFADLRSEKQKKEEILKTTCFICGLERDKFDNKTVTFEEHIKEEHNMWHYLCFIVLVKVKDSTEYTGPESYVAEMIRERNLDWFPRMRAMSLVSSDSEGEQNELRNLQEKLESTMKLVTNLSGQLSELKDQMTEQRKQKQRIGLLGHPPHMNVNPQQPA

EC50: 0.022 µM
SMILES: Nc1ncnc2c1ncn2[C@@H]1O[C@H](CO)[C@@H](O[C@H]2[C@H](O)[C@H](O)[C@@H](OP(=O)(O)O)[C@H](OP(=O)(O)O)[C@H]2O)[C@H]1OP(=O)(O)O [compound 5, 3' -O-(1″ -D-chiro-Inosityl)adenosine 2’, 3″, 4″ -trisphosphate]

— publication PMC7659177 (ACS omega, 2020)
